Results: a melting point compilation (Tetko et al.; mined from patent text by program, amines drawn as free bases though some values may be those of a salt)

SMILES | melting point [°C]
COc1ccnc(Nc2nc(-c3cc(-c4ccccc4)no3)cs2)c1 | 177 to 179
CCNC(=O)c1ccncc1 | 93 to 95
COc1c(NC(=O)c2ccc(-c3ccncc3)cc2)cccc1N1CCN(C)CC1 | 153 to 155
Nc1cc(Oc2ccc3c(c2)CCN3C(=O)Nc2cccc(C(F)(F)F)c2)ncn1 | 186 to 187
CCN(CC)CCN1NC(N)=c2cc3c(nc21)=CC(O)(OC)C=C3 (stereo not given) | 232 to 235
O=C1c2ccc(Sc3ccc(Cl)cc3)cc2C(=O)N1Cc1cccnc1 | 115 to 118
O=[N+]([O-])c1cnn(-c2ccc(C(F)(F)F)cc2Cl)c1 | 106 to 109
O=C(O)Cn1c(-c2ccccc2)ncc(NC(=O)OCc2ccccc2)c1=O | 179 to 183
O=C(c1ccccc1)C(O)c1ccc(Cl)c(Cl)c1 (stereo not given) | 204 to 209
O=S(=O)(c1ccc(O)cc1)c1ccccn1 | 148
CN1C(=O)N(Cc2cc(C(F)(F)F)cc(C(F)(F)F)c2)C(=O)C1=Cc1c[nH]c2ccccc12 | 145 to 147
Cc1noc(NS(=O)(=O)c2ccccc2-c2ccc(-c3ncco3)cc2CN2C(=O)C(F)(F)c3ccccc32)c1C | 112 to 120
CC(=O)Oc1ccc(C(CC(=O)O)CC(=O)OCC(=O)C2CCC3C4CCC5=CC(=O)CCC5(C)C4C4CC23C(O)O4)cc1 (stereo not given) | 145 to 160
COc1cc(Cl)c(N=C2NCCN2O)c(Cl)c1 | 199 to 201
COC(=O)c1ccc(OCC2CC(=O)N(c3ccc(OCCn4ccnc4)cc3)C2)cc1 (stereo not given) | 135 to 138
O=C(O)c1c2ccccc2nc2ccc3ccccc3c12 | 169 to 170
O=C1CC(c2ccccc2)Cc2c1ccn2Cc1ccccc1 (stereo not given) | 122 to 123
N=C(N)NCCc1ccc(OCCCCC(c2ccccc2)(c2ccccc2)c2ccccc2)cc1 | 119 to 121
CN1Cc2csc(=S)n2-c2ccc(F)c(F)c21 | 165 to 167
Cc1oc(-c2ccccc2)nc1COc1ccc(CN(O)C(=O)NO)cc1 | 194 to 195
CON=C(C(=S)OC)c1ccccc1COc1ccccc1Cl | 58 to 60
O=C1N(c2cc(Cl)cc(Cl)c2)C(=O)C2(Cc3ccc(Br)cc3)CCC(c3ccccc3)N12 (stereo not given) | 72.4

SMILES | melting point [°C]
CCOC1=NS(=O)(=O)C(C(=O)OCc2ccccc2)=C1N | 144 to 147
COC(=O)[C@@H]1C[C@H](OS(C)(=O)=O)C(=O)[C@H]2[C@@]1(C)CC[C@H]1C(=O)O[C@H](c3ccoc3)C[C@]21C | 147 to 150
O=C1OC(=O)c2cc3cc(O)ccc3cc21 | 266
CCCc1nc(OC)c(NC(=O)N2CCN(c3cc(C)cc(C)c3)CC2)cc1C(=O)NC(C)C(=O)Nc1cc(CO)cc(Nc2c3ccccc3nc3ccccc23)c1 (stereo not given) | 195 to 197
COc1cccc(-c2cnc(-c3ccoc3)s2)c1 | 61 to 62
O=C(O)c1ccccc1C(=O)N1Cc2cccn2Cc2ccccc21 | 210 to 214
N#Cn1nc(-c2ccccc2)c(=O)cc1Cl | 117 to 119
O=[N+]([O-])c1cccc(C#Cc2c(F)c(F)nc(F)c2F)c1 | 130 to 131
O=C1c2ccc3c4cccc5cccc(c6ccc(c2c36)C(=O)N1C1CCCCCCCCCCC1)c54 | 285
Clc1nnc(Nc2cc(CN3CCCC3)cc(CN3CCCC3)c2)c2ccccc12 | 180 to 183
CCN1CCN(c2ccc(C(=O)NCCCCCCCCCCCCO)cn2)CC1 | 108 to 110
CC(=N)NS(=O)(=O)C=Cc1ccc(Cl)cc1 | 161 to 163
CCOC(=O)c1cn(-c2ccccc2)c2c([N+](=O)[O-])c(Cl)c(F)cc2c1=O | 186 to 188
Cn1cccc1CNCC1(c2cccc(C(F)(F)F)c2)CCN(C(=O)CN2CCN(c3cnccn3)CC2)CC1 | 104 to 105
O=C(NCCNCC(O)COc1ccc(OCCOCC2CC2)cc1)N1CCOCC1 (stereo not given) | 80 to 81
OC(CCl)Cn1c2ccccc2c2cc(-c3ccc4c(c3)c3ccccc3n4CC(O)CCl)ccc21 (stereo not given) | 152 to 153
COC(=O)c1ccc(NC(=O)CSC(C)=O)cc1 | 137 to 139
CON(C(=Cc1ccccc1)C(N)=O)c1ccccc1 | 69
CCOCCOC(=O)C1=C(C)NC(C(OCC)OCC)=C(C(=O)OCC)C1c1cccc([N+](=O)[O-])c1 (stereo not given) | 99 to 100
COc1ccc(-c2ccc(C=NO)o2)cc1OC | 140 to 142
O=C(NCc1cccc(Cl)c1)c1sc2ccc(Cl)cc2c1O | 184 to 186
CN(SCl)C(=O)Nc1ccc(Cl)c(Cl)c1 | 142 to 145

Other lines, results leading:

melting point [°C] | SMILES
124 to 125 | Cc1nc(C)c(Cl)c(NCc2nccc(SCCCSCc3ccncc3)c2C)n1
179 to 180 | CC(C)(C)OC(=O)N1CCC(N2Cc3cc(Br)ccc3C2=O)CC1
206 to 208 | CC(=O)c1ccc(OCCCOc2cccc(NC(=O)c3nnn[nH]3)c2C#N)c(CCC(F)(F)F)c1O
266 to 268 | Oc1nc(NCc2ccc(F)cc2)nc(Nc2cccc(C(F)(F)F)c2)n1
70.5 to 71 | CC(C)(C)C(=O)Nc1ccc(Cl)cc1F
88 to 89 | CCC(C)(C)c1cccc(NC=O)c1Br
272 to 274 | C[C@H](NC(=O)c1c[nH]c2ncc(C3CC3)nc12)C(C)(C)O
144 to 145 | COc1ccc(C(=C/C=C/C(=O)NC(C)(C)CCCc2cccnc2)c2ccc(OC)cc2)cc1
143 to 145 | O=C(NCCO)/C(=C/c1ccc(Cl)cc1)NC(=O)c1ccc(OCCC2CC2)cc1
233 | CCCCc1cnc2ccccc2c1Cc1ccc(C(=O)O)cc1
68 | CCOC(=O)c1ccc(Oc2ccc(F)cc2)nc1
264 | O=C1C2=C(SCCO2)C(=O)N1c1ccc2ccc(Cl)nc2n1
> 300 | O=c1c2ccccc2nc2n1CS(=O)(=O)N2
146 to 148 | CCN(C(=O)N1CCN(c2cc(Cl)cc(Cl)c2)CC1)c1nc2ccccc2nc1OC
159 | CCOC(=O)C1=C(N)NC(C)=CC1c1ccccc1C (stereo not given)
178 | CNC(=O)NCCN1CCC(=C2c3ccccc3CCn3ccnc32)CC1
155 | CC(C)(C)OC(=O)NNc1ccc(NC(=O)OC(C)(C)C)cc1
105 to 106 | COc1ccc(CCNC(=O)C(F)(F)F)cc1C=O
295 to 300 | Cn1c(=O)[nH]c(=O)c2c1ncn2CC(=O)Nc1ccc(C2CCCC2)cc1
180 to 182 | CC(C)(C)n1cc(-c2ccc(S(=O)c3ccccc3)cc2)c2c(N)ncnc21 (stereo not given)
108 | COc1ccc(-c2cc(C(=O)NCc3ccccc3)c(=O)n(CC3CCCC3)n2)cc1
182 to 188 | CNC(=O)c1ccc(-c2n[nH]c3c2Cc2ccccc2-3)cc1
104 to 106 | CCOC(=O)C1Cc2cc(OC)c(OC)cc2N1C(=O)CCSC(C)=O (stereo not given)
138 | CC(C)(c1cc(F)cc([N+](=O)[O-])c1O)c1cc(F)cc([N+](=O)[O-])c1O
232 to 233 | Cc1cc(-c2nc3cc(C(C)(C)C)c(Cl)nn3c2-c2ccnc(N)c2)ccc1F
127 to 130 | NC(=O)c1cn([C@@H](CO)CCn2ccc3ccccc32)cn1
